Patent US12612409B2, “Pyrrolopyrimidines as CFTR potentiators” (Cystic Fibrosis Foundation, priority 2016, dated 2026)

Experiments:
[1] = target: T1, recombinant F508del V470 CFTR in Fischer rat thyroid (FRT) cells (Homo sapiens, UniProt P13569, DEL508-508); assay: FRT ion flux assay of F508del CFTR potentiation; type: cell-based; details: FRT cells expressing F508del V470 CFTR, forskolin 20 uM, 27° C. pre-incubation
T1 construct: expressed in transfected cells
Summary of the method: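 Potentiation read as YFP quench ~21 s after iodide buffer addition, as second/initial fluorescence ratio normalised between DMSO (0%) and reference potentiator (100%).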

[2] = target: T2, CFTR in F508del/F508del primary CF hBE cells (Homo sapiens, UniProt P13569, DEL508-508); assay: Ussing chamber electrophysiology assay of CFTR potentiation in F508del/F508del CF bronchial epithelial cells (27° C.); type: cell-based
T2 construct: Primary cystic fibrosis human bronchial epithelial (CF hBE) cells were expanded and cultured; endogenous in cells; host or cells: primary CF human bronchial epithelial cells, genotype F508del/F508del
T2 sequence (P13569 with tags, fused parts or gaps DEL508-508): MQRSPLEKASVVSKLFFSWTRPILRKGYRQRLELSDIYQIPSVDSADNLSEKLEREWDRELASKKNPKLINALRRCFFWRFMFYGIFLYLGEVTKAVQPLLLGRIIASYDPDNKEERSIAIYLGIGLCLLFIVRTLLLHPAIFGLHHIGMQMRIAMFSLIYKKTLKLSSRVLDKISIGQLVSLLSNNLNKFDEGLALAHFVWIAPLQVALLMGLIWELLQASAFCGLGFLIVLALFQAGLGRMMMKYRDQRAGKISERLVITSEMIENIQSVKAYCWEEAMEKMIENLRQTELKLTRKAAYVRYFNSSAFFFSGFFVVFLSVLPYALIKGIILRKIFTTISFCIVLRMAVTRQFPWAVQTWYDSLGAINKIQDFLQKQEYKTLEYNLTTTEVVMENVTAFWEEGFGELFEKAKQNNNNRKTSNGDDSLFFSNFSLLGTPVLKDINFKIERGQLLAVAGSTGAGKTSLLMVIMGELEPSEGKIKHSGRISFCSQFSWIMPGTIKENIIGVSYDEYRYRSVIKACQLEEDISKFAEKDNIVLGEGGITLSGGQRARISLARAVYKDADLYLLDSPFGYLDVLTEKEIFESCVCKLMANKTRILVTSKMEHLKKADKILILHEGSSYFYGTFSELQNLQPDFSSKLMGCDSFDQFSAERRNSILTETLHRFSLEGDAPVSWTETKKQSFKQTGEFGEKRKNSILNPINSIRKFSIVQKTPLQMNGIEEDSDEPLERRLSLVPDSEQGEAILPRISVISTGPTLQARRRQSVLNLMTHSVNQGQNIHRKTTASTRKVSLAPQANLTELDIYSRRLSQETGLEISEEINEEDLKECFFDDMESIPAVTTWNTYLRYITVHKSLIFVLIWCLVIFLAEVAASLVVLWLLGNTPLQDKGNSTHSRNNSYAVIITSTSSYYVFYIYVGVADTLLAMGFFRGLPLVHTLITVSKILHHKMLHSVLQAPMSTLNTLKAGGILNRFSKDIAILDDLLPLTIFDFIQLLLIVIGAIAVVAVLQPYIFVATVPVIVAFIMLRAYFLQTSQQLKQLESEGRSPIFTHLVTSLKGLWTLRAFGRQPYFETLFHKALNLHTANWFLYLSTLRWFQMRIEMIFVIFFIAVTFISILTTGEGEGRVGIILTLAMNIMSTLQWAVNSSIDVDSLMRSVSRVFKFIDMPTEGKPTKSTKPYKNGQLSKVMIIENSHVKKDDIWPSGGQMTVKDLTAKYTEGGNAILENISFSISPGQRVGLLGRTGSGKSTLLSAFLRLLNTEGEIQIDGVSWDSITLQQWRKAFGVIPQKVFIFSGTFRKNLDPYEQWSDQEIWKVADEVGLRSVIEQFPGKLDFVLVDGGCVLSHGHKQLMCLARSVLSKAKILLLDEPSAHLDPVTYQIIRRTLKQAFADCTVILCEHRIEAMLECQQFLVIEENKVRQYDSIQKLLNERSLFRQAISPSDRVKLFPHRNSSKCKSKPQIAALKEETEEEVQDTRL
Summary of the method: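 Short-circuit current was recorded under zero-voltage clamp across primary CF bronchial epithelia cultured >30 days at air/liquid interface, bathed apically and basolaterally in HEPES-buffered saline. Sequential additions: amiloride (30 uM), forskolin (10 uM), compound at 4 increasing levels, CFTRinh-172 (20 uM). Responses normalised between DMSO (0%) and maximal positive-control potentiator (100%).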

T1 sequence (P13569 with tags, fused parts or gaps DEL508-508): as above

Compound	EC50 [1] [nM]	EC50 [2] [nM]
CCC(c1cn(-c2ccc(F)c(F)c2)nn1)n1cc(-c2cnc(C(F)(F)F)nc2)c2c(N)ncnc21 (single isomer, unassigned; enantiomer 1) [Example 153, 7-{1-[1-(3,4-Difluorophenyl)-1H-1,2,3-triazol-4-yl]propyl}-5-[2-(trifluoromethyl)pyrimidin-5-yl]-7H-pyrrolo[2,3-d]pyrimidin-4-amine, enantiomer 1]	59	19.8
CCC(c1cn(-c2ccc(F)c(F)c2)nn1)n1cc(-c2cc(F)cnc2OC)c2c(N)ncnc21 (single isomer, unassigned; enantiomer 1) [Example 155, 7-{1-[1-(3,4-Difluorophenyl)-1H-1,2,3-triazol-4-yl]propyl}-5-(5-fluoro-2-methoxypyridin-3-yl)-7H-pyrrolo[2,3-d]pyrimidin-4-amine, enantiomer 1]	38.6	9.17
CCC(c1cn(-c2ccc(F)c(F)c2)nn1)n1cc(-c2cnc(OC)c(F)c2)c2c(N)ncnc21 (single isomer, unassigned; enantiomer 1) [Example 157, 7-{1-[1-(3,4-Difluorophenyl)-1H-1,2,3-triazol-4-yl]propyl}-5-(5-fluoro-6-methoxypyridin-3-yl)-7H-pyrrolo[2,3-d]pyrimidin-4-amine, enantiomer 1]	433	239
CCC(c1cn(-c2ccc(F)cc2F)nn1)n1cc(-c2cncnc2OC)c2c(N)ncnc21 (single isomer, unassigned; enantiomer 1) [Example 159, (+) 7-{1-[1-(2,4-Difluorophenyl)-1H-1,2,3-triazol-4-yl]propyl}-5-(4-methoxypyrimidin-5-yl)-7H-pyrrolo[2,3-d]pyrimidin-4-amine, enantiomer 1]	18.5	35.5
CCC(c1cn(-c2ccc(F)cc2F)nn1)n1cc(-c2cc(F)cnc2OC)c2c(N)ncnc21 (single isomer, unassigned; enantiomer 1) [Example 163, 7-{1-[1-(2,4-Difluorophenyl)-1H-1,2,3-triazol-4-yl]propyl}-5-(5-fluoro-2-methoxypyridin-3-yl)-7H-pyrrolo[2,3-d]pyrimidin-4-amine, enantiomer 1]	296	97.1
CCC(c1cn(-c2ccc(F)cc2F)nn1)n1cc(-c2cnc(OC)c(F)c2)c2c(N)ncnc21 (single isomer, unassigned; enantiomer 1) [Example 165, 7-{1-[1-(2,4-Difluorophenyl)-1H-1,2,3-triazol-4-yl]propyl}-5-(5-fluoro-6-methoxypyridin-3-yl)-7H-pyrrolo[2,3-d]pyrimidin-4-amine, enantiomer 1]	728	247
CCC(c1cn(-c2ccc(F)cc2F)nn1)n1cc(-c2cnc(C(F)F)nc2)c2c(N)ncnc21 (single isomer, unassigned; enantiomer 1) [Example 167, 5-[2-(Difluoromethyl)pyrimidin-5-yl]-7-{1-[1-(2,4-difluorophenyl)-1H-1,2,3-triazol-4-yl]propyl}-7H-pyrrolo[2,3-d]pyrimidin-4-amine, enantiomer 1]	25	50.5
CCC(c1cn(-c2cccc(F)c2F)nn1)n1cc(-c2cc(F)cnc2OC)c2c(N)ncnc21 (single isomer, unassigned; enantiomer 1) [Example 169, 7-{1-[1-(2,3-Difluorophenyl)-1H-1,2,3-triazol-4-yl]propyl}-5-(5-fluoro-2-methoxypyridin-3-yl)-7H-pyrrolo[2,3-d]pyrimidin-4-amine, enantiomer 1]	7.98	4.9
CCC(c1cn(-c2cc(F)ccc2F)nn1)n1cc(-c2cc(F)cnc2OC)c2c(N)ncnc21 (single isomer, unassigned; enantiomer 1) [Example 171, 7-{1-[1-(2,5-Difluorophenyl)-1H-1,2,3-triazol-4-yl]propyl}-5-(5-fluoro-2-methoxypyridin-3-yl)-7H-pyrrolo[2,3-d]pyrimidin-4-amine, enantiomer 1]	11.7	3.87
CCC(c1cn(-c2ccccc2F)nn1)n1cc(C2CC2)c2c(N)ncnc21 (single isomer, unassigned; enantiomer 1) [Example 173, (−) 5-Cyclopropyl-7-{1-[1-(2-fluorophenyl)-1H-1,2,3-triazol-4-yl]propyl}-7H-pyrrolo[2,3-d]pyrimidin-4-amine, enantiomer 1]	29.3	26.7
COc1ncncc1-c1cn(C(c2cn(-c3ccccc3F)nn2)C2CC2)c2ncnc(N)c12 (single isomer, unassigned; enantiomer 1) [Example 174, (+) 7-{Cyclopropyl[1-(2-fluorophenyl)-1H-1,2,3-triazol-4-yl]methyl}-5-(4-methoxypyrimidin-5-yl)-7H-pyrrolo[2,3-d]pyrimidin-4-amine, enantiomer 1]	19.6	31.5
CCC(c1cnn(-c2ccccc2F)c1)n1cc(-c2cnc(C(F)(F)F)nc2)c2c(N)ncnc21 (single isomer, unassigned; enantiomer 1) [Example 175, 7-{(1-[1-(2-Fluorophenyl)-1H-pyrazol-4-yl]propyl}-5-[2-(trifluoromethyl)pyrimidin-5-yl]-7H-pyrrolo[2,3-d]pyrimidin-4-amine, enantiomer 1]	9.89	8
CCC(c1c[nH]c(-c2ccc(F)cc2F)n1)n1cc(-c2cnc(C(F)(F)F)nc2)c2c(N)ncnc21 (single isomer, unassigned; enantiomer 1) [Example 177, 7-{1-[2-(2,4-Difluorophenyl)-2H-imidazol-4-yl]propyl}-5-[2-(trifluoromethyl)pyrimidin-5-yl]-7H-pyrrolo[2,3-d]pyrimidin-4-amine, enantiomer 1]	21.6	18.9
Cc1c(C(C)n2cc(-c3cnc(C(F)(F)F)nc3)c3c(N)ncnc32)nnn1-c1ccccc1F (single isomer, unassigned; enantiomer 1) [Example 179, 7-{1-[1-(2-Fluorophenyl)-5-methyl-1H-1,2,3-triazol-4-yl]ethyl}-5-[2-(trifluoromethyl)pyrimidin-5-yl]-7H-pyrrolo[2,3-d]pyrimidin-4-amine, enantiomer 1]	9.97	23.1
CC(c1cc(-c2ccccc2F)no1)n1cc(-c2ccc(Cl)cc2)c2c(N)ncnc21 (single isomer, unassigned; enantiomer 1) [Example 181, (+)-5-(4-Chlorophenyl)-7-{1-[3-(2-fluorophenyl)-1,2-oxazol-5-yl]ethyl}-7H-pyrrolo[2,3-d]pyrimidin-4-amine, enantiomer 1]	538	24.5
CC(c1cn(-c2ccccc2F)nn1)n1cc(C2CCC2)c2c(N)ncnc21 (single isomer, unassigned; enantiomer 1) [Example 294, 5-Cyclobutyl-7-{1-[1-(2-fluorophenyl)-1H-1,2,3-triazol-4-yl]ethyl}-7H-pyrrolo[2,3-d]pyrimidin-4-amine, enantiomer 1]	167	189
CCC(c1cn(-c2cccc(F)c2F)nn1)n1cc(-c2cncnc2OC)c2c(N)ncnc21 (single isomer, unassigned; enantiomer 1) [Example 305, (−) 7-{1-[1-(2,3-Difluorophenyl)-1H-1,2,3-triazol-4-yl]propyl}-5-(4-methoxypyrimidin-5-yl)-7H-pyrrolo[2,3-d]pyrimidin-4-amine, enantiomer 1]	545	372
CCC(c1cn(-c2cc(F)ccc2F)nn1)n1cc(-c2cncnc2OC)c2c(N)ncnc21 (single isomer, unassigned; enantiomer 1) [Example 307, (+) 7-{1-[1-(2,5-Difluorophenyl)-1H-1,2,3-triazol-4-yl]propyl}-5-(4-methoxypyrimidin-5-yl)-7H-pyrrolo[2,3-d]pyrimidin-4-amine, enantiomer 1]	45.8	55.4
CCC(c1cn(-c2ccc(OC)nc2)nn1)n1cc(-c2cnc(C(F)(F)F)nc2)c2c(N)ncnc21 (single isomer, unassigned; enantiomer 1) [Example 309, 7-{1-[1-(6-Methoxypyridin-3-yl)-1H-1,2,3-triazol-4-yl]propyl}-5-[2-(trifluoromethyl)pyrimidin-5-yl]-7H-pyrrolo[2,3-d]pyrimidin-4-amine, enantiomer 1]	69	69
CCC(c1cn(-c2cc(F)cc(F)c2)nn1)n1cc(-c2cnc(C(F)(F)F)nc2)c2c(N)ncnc21 (single isomer, unassigned; enantiomer 1) [Example 311, 7-{1-[1-(3,5-Difluorophenyl)-1H-1,2,3-triazol-4-yl]propyl}-5-[2-(trifluoromethyl)pyrimidin-5-yl]-7H-pyrrolo[2,3-d]pyrimidin-4-amine, enantiomer 1]	250	111
CC(c1cn(-c2ccc(F)cc2F)nn1)n1c(C#N)c(-c2ccc(OC3CC3)nc2)c2c(N)ncnc21 (single isomer, unassigned; enantiomer 1) [Example 320, 4-Amino-5-[6-(cyclopropyloxy)pyridin-3-yl]-7-{1-[1-(2,4-difluorophenyl)-1H-1,2,3-triazol-4-yl]ethyl}-7H-pyrrolo[2,3-d]pyrimidine-6-carbonitrile, enantiomer 1]	120	46.2
